Earlier results in US20220160649A1, “PHARMACEUTICAL COMPOSITION” (priority 2019, published 2022).

Details: stated as well known

In the case of Oc1ccc(/C=C/c2cc(O)cc(O)c2)cc1 [resveratrol (IIIA), resveratrol], the solubility in water is listed as “almost insoluble”.
